Experimental data as given in ChEMBL document CHEMBL3785015, “Phenobarbital pharmacokinetics and bioavailability in adults” (J Clin Pharmacol, 1982).

Key:
[1] = Elimination half life in healthy human subjects (6 subjects) at 2.9 mg/kg, po measured during oral dose (period-3) by HPLC method; assay type: ADME, organism-based; conditions: in vivo, read-out: beta t1/2 (converted)
[2] = Elimination half life in healthy human subjects (6 subjects) at 2.6 mg/kg, iv measured during intravenous control dose (period-1) by HPLC method; assay type: ADME, organism-based; conditions: in vivo, read-out: beta t1/2 (converted)
[3] = Drug dissolution in 0.1N HCl measured during 15 mins; assay type: physicochemical; conditions: buffer, 0.25 h
[4] = Renal clearance in healthy human subjects (6 subjects) at 2.6 mg/kg, iv by HPLC method; assay type: ADME, organism-based, Kidney; conditions: in vivo
[5] = Apparent volume of distribution in healthy human subjects (6 subjects) at 2.6 mg/kg, iv by HPLC method; assay type: ADME, organism-based; conditions: in vivo, read-out: Vd(app)
[6] = Drug dissolution in aqueous medium after 90 mins; assay type: physicochemical; conditions: buffer, 1.5 h
[7] = Disposition rate constant at terminal phase in healthy human subjects (6 subjects) at 2.9 mg/kg, po by HPLC method; assay type: ADME, organism-based; conditions: in vivo
[8] = Tmax in adult human; assay type: ADME, organism-based; conditions: in vivo
[9] = Terminal half life in healthy human subjects (6 subjects) at 2.9 mg/kg, po by HPLC method; assay type: ADME, organism-based; conditions: in vivo, read-out: beta t1/2 (converted)
[10] = Disposition rate constant at terminal phase in healthy human subjects (6 subjects) at 2.6 mg/kg, iv by HPLC method; assay type: ADME, organism-based; conditions: in vivo
[11] = Corrected oral bioavailability in healthy human subjects (6 subjects) at 2.9 mg/kg by HPLC method; assay type: ADME, organism-based; conditions: in vivo
[12] = Oral bioavailability in healthy human subjects (6 subjects) at 2.9 mg/kg by HPLC method; assay type: ADME, organism-based; conditions: in vivo
[13] = Elimination half life in healthy human subjects (6 subjects) measured during alkaline diuresis dose (period-2) by HPLC method; assay type: ADME, organism-based; conditions: in vivo, read-out: beta t1/2 (converted)
[14] = Tmax in human; assay type: ADME, organism-based; conditions: in vivo
Homo sapiens [15] = test: Disposition rate constant at distribution phase in healthy human subjects (6 subjects) at 2.6 mg/kg, iv by HPLC method; assay type: ADME, organism-based; conditions: in vivo
[16] = Tmax in healthy human subjects (6 subjects) at 2.9 mg/kg, po by HPLC method; assay type: ADME, organism-based; conditions: in vivo
[17] = Cmax in healthy human subjects (6 subjects) at 2.9 mg/kg, po by HPLC method; assay type: ADME, organism-based; set-up: dose 2.9 mg/kg, route oral; conditions: in vivo
Homo sapiens [18] = test: Distribution half life in healthy human subjects (6 subjects) at 2.6 mg/kg, iv by HPLC method; assay type: ADME, organism-based; conditions: in vivo
[19] = Drug dissolution in water measured during 15 mins; assay type: physicochemical; conditions: buffer, 0.25 h
[20] = Terminal half life in healthy human subjects (6 subjects) at 2.6 mg/kg, iv by HPLC method; assay type: ADME, organism-based; conditions: in vivo, read-out: beta t1/2 (converted)
[21] = Total body clearance in healthy human subjects (6 subjects) at 2.6 mg/kg, iv by HPLC method; assay type: ADME, organism-based; conditions: in vivo
[22] = Oral bioavailability in human subjects receiving phenobarbital tablets after having received phenobarbital infusion for […] withdrawal; assay type: ADME, organism-based; conditions: in vivo
[23] = Drug dissolution in acid medium after 90 mins; assay type: physicochemical; conditions: 1.5 h

## CCC1(c2ccccc2)C(=O)NC(=O)NC1=O [PHENOBARBITAL]
[1]
  half-life: 149 h
[2]
  half-life: 147 h
[3]
  Drug dissolution: 81.5%
[4]
  CL renal: 0.8 mL/h/kg
[5]
  Vd: 0.6 L/kg
[6]
  Drug dissolution: 86%
[7]
  k el: 1.58e-06 s⁻¹
[8]
  Tmax: 50 h
[9]
  half-life: 122 h
[10]
  k el: 1.39e-06 s⁻¹
[11]
  bioavailability: 94.9%
[12]
  bioavailability: 83.4%
[13]
  half-life: 128 h
[14]
  Tmax: ≤ 18 h
Homo sapiens [15]
  K: 3.8 h⁻¹
[16]
  Tmax: 2.3 h
[17]
  Cmax: 5500 ng/mL
Homo sapiens [18]
  alphat1/2: 0.18 h
[19]
  Drug dissolution: 80%
[20]
  half-life: 139 h
[21]
  clearance: 3 mL/h/kg
[22]
  bioavailability: 100%
[23]
  Drug dissolution: 61.3%
